The source of these data is PubChem BioAssay AID1259411 (Chemical Carcinogenesis Research Information System (CCRIS), 2018).

Calls of active or inactive are those of the source. The rule behind the calls is not given here.

This series concerns rodent carcinogenicity bioassays, tumor incidence. Description: CCRIS carcinogenicity studies. Conditions: Route: ORAL, Dose: 0, Dose: 0. The gist of the method:
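Archive of carcinogenicity, mutagenicity, tumor promotion and tumor inhibition results drawn from journals, NCI reports and other sources, expert-reviewed; covers 1985-2011 and is no longer updated.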

Consider `CCCCC(CC)COC(=O)c1ccccc1C(=O)OCC(CC)CCCC` (stereo not given), for which the carcinogen call was “active; positive” (Species: MOUSE, Strain/Sex: B6C3F1/FEMALE, 3000, 6000 PPM IN DIET FOR 102-104 WK (STUDY DURATION: 102-104 WK), 3000, 6000 PPM IN DIET FOR 102-104 WK (STUDY DURATION: 102-104 WK), Tumor Site: Type of Lesion: LIVER: CARCINOMA, CARCINOMA OR ADENOMA); “active; positive” (Species: MOUSE, Strain/Sex: B6C3F1/FEMALE, 3000, 6000 PPM IN DIET FOR 103 WK (STUDY DURATION: 105 WK), 3000, 6000 PPM IN DIET FOR 103 WK (STUDY DURATION: 105 WK), Tumor Site: Type of Lesion: LIVER: HEPATOCELLULAR CARCINOMA); “active; positive” (Species: MOUSE, Strain/Sex: B6C3F1/MALE, 3000, 6000 PPM IN DIET FOR 102-104 WK (STUDY DURATION: 102-104 WK), 3000, 6000 PPM IN DIET FOR 102-104 WK (STUDY DURATION: 102-104 WK), Tumor Site: Type of Lesion: LIVER: CARCINOMA, CARCINOMA OR ADENOMA); “active; positive” (Species: MOUSE, Strain/Sex: B6C3F1/MALE, 3000, 6000 PPM IN DIET FOR 103 WK (STUDY DURATION: 104-105 WK), 3000, 6000 PPM IN DIET FOR 103 WK (STUDY DURATION: 104-105 WK), Tumor Site: Type of Lesion: LIVER: HEPATOCELLULAR CARCINOMA); “active; positive” (Species: RAT, Strain/Sex: F344/FEMALE, 6000, 12000 PPM IN DIET FOR 102-104 WK (STUDY DURATION: 102-104 WK), 6000, 12000 PPM IN DIET FOR 102-104 WK (STUDY DURATION: 102-104 WK), Tumor Site: Type of Lesion: LIVER: CARCINOMA, CARCINOMA OR ADENOMA); “active; positive” (Species: RAT, Strain/Sex: F344/FEMALE, 6000, 12000 PPM IN DIET FOR 103 WK (STUDY DURATION: 105 WK), 6000, 12000 PPM IN DIET FOR 103 WK (STUDY DURATION: 105 WK), Tumor Site: Type of Lesion: LIVER: HEPATOCELLULAR CARCINOMA, NEOPLASTIC NODULE). For the same compound, the carcinogen call is, setting by setting: (Species: RAT, Strain/Sex: F344/MALE, 2% IN DIET FOR 78 WK (STUDY DURATION: 78 WK), Tumor Site: Type of Lesion: LIVER: NEOPLASM) “active; positive”; (Species: RAT, Strain/Sex: F344/MALE, 2% IN DIET FOR 108 WK (STUDY DURATION: 108 WK), Tumor Site: Type of Lesion: LIVER: NEOPLASTIC NODULE OR HEPATOCELLULAR CARCINOMA) “active; positive”; (Species: RAT, Strain/Sex: F344/MALE, 6000, 12000 PPM IN DIET FOR 102-104 WK (STUDY DURATION: 102-104 WK), 6000, 12000 PPM IN DIET FOR 102-104 WK (STUDY DURATION: 102-104 WK), Tumor Site: Type of Lesion: LIVER: CARCINOMA, CARCINOMA OR ADENOMA) “active; positive”; (Species: RAT, Strain/Sex: F344/MALE, 6000, 12000 PPM IN DIET FOR 103 WK (STUDY DURATION: 104-105 WK), 6000, 12000 PPM IN DIET FOR 103 WK (STUDY DURATION: 104-105 WK), Tumor Site: Type of Lesion: LIVER: HEPATOCELLULAR CARCINOMA OR NEOPLASTIC NODULE) “active; positive”; (Species: RAT, Strain/Sex: SPRAGUE-DAWLEY/MALE (31-167/GROUP), 30, 95, 300 MG/KG/D IN DIET UP TO 159 WK (STUDY DURATION: LIFE TIME), 30, 95, 300 MG/KG/D IN DIET UP TO 159 WK (STUDY DURATION: LIFE TIME), Tumor Site: Type of Lesion: TESTIS: LEYDIG CELL TUMORS) “active; positive”; (Species: RAT, Strain/Sex: SPRAGUE-DAWLEY/MALE (31-167/GROUP), 30, 95, 300 MG/KG/D IN DIET UP TO 159 WK (STUDY DURATION: LIFETIME), 30, 95, 300 MG/KG/D IN DIET UP TO 159 WK (STUDY DURATION: LIFETIME), Tumor Site: Type of Lesion: LIVER: CHOLANGIOCELLULAR TUMORS, TESTIS: LEYDIG CELL TUMORS (SIGNIFICANT DOSE RELATED TREND, INCIDENCE COMPARED TO CONTR, Tumor Site: Type of Lesion: LIVER: CHOLANGIOCELLULAR TUMORS, TESTIS: LEYDIG CELL TUMORS (SIGNIFICANT DOSE RELATED TREND, INCIDENCE COMPARED TO CONTR) “active; positive”.

Take `O=C(Nc1ccc([N+](=O)[O-])cc1Cl)c1cc(Cl)ccc1O`: the carcinogen call (Species: MOUSE, Strain/Sex: B6C3F1/FEMALE, 274, 549 PPM IN DIET FOR 78 WK (STUDY DURATION: 91-92 WK), 274, 549 PPM IN DIET FOR 78 WK (STUDY DURATION: 91-92 WK)) was “inactive; negative”; the carcinogen call (Species: RAT, Strain/Sex: OSBORNE-MENDEL/FEMALE, 14216, 28433 PPM IN DIET FOR 78 WK (STUDY DURATION: 110-111 WK), 14216, 28433 PPM IN DIET FOR 78 WK (STUDY DURATION: 110-111 WK), Tumor Site: Type of Lesion: MAMMARY GLAND: ADENOCARCINOMA, STOMACH: CARCINOMA) was “equivocal”; the carcinogen call (Species: RAT, Strain/Sex: OSBORNE-MENDEL/MALE, 14216, 28433 PPM IN DIET FOR 78 WK (STUDY DURATION: 110-111 WK), 14216, 28433 PPM IN DIET FOR 78 WK (STUDY DURATION: 110-111 WK)) was “inactive; negative”.
